The assay relates to MV-4-11 cells. The assay is described as follows: Gene expression microarray analysis (Affymetrix PrimeView) and GSEA. The assay is classed as cell-based, human. The arrangement: RFU PODN (11730768_x_at) / Fold change /veh PODN (11730768_x_at) / RFU LINC00158 (11744669_a_at) / Fold change /veh LINC00158 (11744669_a_at) / RFU DUSP10 (11751237_a_at) / Fold change /veh DUSP10 (11751237_a_at) / RFU ID3 (11757404_x_at) / Fold change /veh ID3 (11757404_x_at) / RFU PLEKHG5 (11737974_s_at) / Fold change /veh PLEKHG5 (11737974_s_at) / RFU LRRC4B (11730491_at) / Fold change /veh LRRC4B (11730491_at) / RFU GIMAP4 (11747438_a_at) / Fold change /veh GIMAP4 (11747438_a_at) / RFU KRT8 (11758183_x_at) / Fold change /veh KRT8 (11758183_x_at) / RFU CNN1 (11734310_a_at) / Fold change /veh CNN1 (11734310_a_at) / RFU VPS37D (11726825_at) / Fold change /veh VPS37D (11726825_at) / RFU C10orf10 (11716522_x_at) / Fold change /veh C10orf10 (11716522_x_at) / RFU KIR2DL2 /// KIR2DL4 /// KIR2DL5A /// KIR2DL5B /// KIR2DS1 /// KIR2DS2 /// KIR2DS3 /// KIR2DS4 /// KIR3DL3 /// KIR3DL3 /// KIR3DS1 (11738374_at) / Fold change /veh KIR2DL2 /// KIR2DL4 /// KIR2DL5A /// KIR2DL5B /// KIR2DS1 /// KIR2DS2 /// KIR2DS3 /// KIR2DS4 /// KIR3DL3 /// KIR3DL3 /// KIR3DS1 (11738374_at) / RFU C1QL1 (11718748_at) / Fold change /veh C1QL1 (11718748_at) / RFU TMPRSS4 (11747572_a_at) / Fold change /veh TMPRSS4 (11747572_a_at) / RFU HAMP (11756126_x_at) / Fold change /veh HAMP (11756126_x_at) / RFU RNFT2 (11725882_a_at) / Fold change /veh RNFT2 (11725882_a_at) / RFU NR4A2 (11747474_a_at) / Fold change /veh NR4A2 (11747474_a_at) / RFU ABCC12 (11746883_a_at) / Fold change /veh ABCC12 (11746883_a_at) / RFU TMEM136 (11760407_x_at) / Fold change /veh TMEM136 (11760407_x_at) / RFU CLDN22 /// WWC2 (11732394_at) / Fold change /veh CLDN22 /// WWC2 (11732394_at) / RFU HLA-DPB1 (11760878_x_at) / Fold change /veh HLA-DPB1 (11760878_x_at) / RFU SPINT1 (11716480_a_at) / Fold change /veh SPINT1 (11716480_a_at) / RFU GAP43 (11754022_s_at) / Fold change /veh GAP43 (11754022_s_at) / RFU A4GNT (11735810_at) / Fold change /veh A4GNT (11735810_at) / RFU PRB3 (11715151_x_at) / Fold change /veh PRB3 (11715151_x_at) / RFU TUBB4B (11761932_at) / Fold change /veh TUBB4B (11761932_at) / RFU CAPN14 (11732068_a_at) / Fold change /veh CAPN14 (11732068_a_at) / RFU TMCC2 (11721928_a_at) / Fold change /veh TMCC2 (11721928_a_at) / RFU IRGQ (11745062_a_at) / Fold change /veh IRGQ (11745062_a_at) / RFU FAM174B (11720279_a_at) / Fold change /veh FAM174B (11720279_a_at) / RFU TMPRSS4 (11748680_a_at) / Fold change /veh TMPRSS4 (11748680_a_at) / RFU FAM212B (11763350_a_at) / Fold change /veh FAM212B (11763350_a_at) / RFU PLEKHG5 (11743358_a_at) / Fold change /veh PLEKHG5 (11743358_a_at) / RFU ZSCAN30 (11745921_a_at) / Fold change /veh ZSCAN30 (11745921_a_at) / RFU CMKLR1 (11741424_a_at) / Fold change /veh CMKLR1 (11741424_a_at) / RFU LOC101060620 /// MAPK8IP1 (11723275_at) / Fold change /veh LOC101060620 /// MAPK8IP1 (11723275_at) / RFU SPTSSB (11747773_x_at) / Fold change /veh SPTSSB (11747773_x_at) / RFU PRSS12 (11739890_at) / Fold change /veh PRSS12 (11739890_at) / RFU BIN1 (11741810_x_at) / Fold change /veh BIN1 (11741810_x_at) / RFU WNT11 (11732464_a_at) / Fold change /veh WNT11 (11732464_a_at) / RFU C10orf10 (11716521_a_at) / Fold change /veh C10orf10 (11716521_a_at) / RFU C5orf56 (11738089_at) / Fold change /veh C5orf56 (11738089_at) / RFU CYB561 (11721691_x_at) / Fold change /veh CYB561 (11721691_x_at) / RFU ANKRD19P (11752326_a_at) / Fold change /veh ANKRD19P (11752326_a_at) / RFU OR2T12 /// OR2T33 /// OR2T8 (11738714_s_at) / Fold change /veh OR2T12 /// OR2T33 /// OR2T8 (11738714_s_at) / RFU VCAN (11748164_a_at) / Fold change /veh VCAN (11748164_a_at) / RFU JSRP1 (11732532_at) / Fold change /veh JSRP1 (11732532_at) / RFU KRTAP10-11 (11738290_x_at) / Fold change /veh KRTAP10-11 (11738290_x_at) / RFU MYO3A (11730013_a_at) / Fold change /veh MYO3A (11730013_a_at) / RFU EBF3 (11725865_a_at) / Fold change /veh EBF3 (11725865_a_at) / RFU CAMK2N1 (11719241_x_at) / Fold change /veh CAMK2N1 (11719241_x_at) / RFU C5orf56 (11738088_a_at) / Fold change /veh C5orf56 (11738088_a_at) / RFU OLFML3 (11715873_a_at) / Fold change /veh OLFML3 (11715873_a_at) / RFU LOC100653217 /// NTM (11731650_a_at) / Fold change /veh LOC100653217 /// NTM (11731650_a_at) / RFU MAPK11 (11762145_a_at) / Fold change /veh MAPK11 (11762145_a_at) / RFU FIZ1 (11724087_x_at) / Fold change /veh FIZ1 (11724087_x_at) / RFU OASL (11726364_x_at) / Fold change /veh OASL (11726364_x_at) / RFU SOX15 (11748057_x_at) / Fold change /veh SOX15 (11748057_x_at) / RFU CD79A (11719716_a_at) / Fold change /veh CD79A (11719716_a_at) / RFU HIST1H1D (11736915_at) / Fold change /veh HIST1H1D (11736915_at) / RFU CASKIN2 (11723855_a_at) / Fold change /veh CASKIN2 (11723855_a_at) / RFU LOC730098 (11760151_x_at) / Fold change /veh LOC730098 (11760151_x_at) / RFU OR4N2 (11742367_at) / Fold change /veh OR4N2 (11742367_at) / RFU PRRT2 (11749266_a_at) / Fold change /veh PRRT2 (11749266_a_at) / RFU SNX32 (11753110_a_at) / Fold change /veh SNX32 (11753110_a_at) / RFU CDHR5 (11726645_a_at) / Fold change /veh CDHR5 (11726645_a_at) / RFU RCAN1 (11760418_a_at) / Fold change /veh RCAN1 (11760418_a_at) / RFU FAM167A (11723789_a_at) / Fold change /veh FAM167A (11723789_a_at) / RFU FAM26E (11764081_at) / Fold change /veh FAM26E (11764081_at) / RFU ISYNA1 (11749810_s_at) / Fold change /veh ISYNA1 (11749810_s_at) / RFU ACY1 (11761880_at) / Fold change /veh ACY1 (11761880_at) / RFU 11764098_at / Fold change /veh 11764098_at / RFU SAMD14 (11745864_x_at) / Fold change /veh SAMD14 (11745864_x_at) / RFU NPB (11741838_a_at) / Fold change /veh NPB (11741838_a_at) / RFU TMPRSS6 (11731388_a_at) / Fold change /veh TMPRSS6 (11731388_a_at) / RFU KRTAP10-2 (11738614_at) / Fold change /veh KRTAP10-2 (11738614_at) / RFU ARHGAP8 /// PRR5-ARHGAP8 (11727945_x_at) / Fold change /veh ARHGAP8 /// PRR5-ARHGAP8 (11727945_x_at) / RFU KRTAP5-7 /// NADSYN1 (11734609_at) / Fold change /veh KRTAP5-7 /// NADSYN1 (11734609_at) / RFU RASL12 (11751679_a_at) / Fold change /veh RASL12 (11751679_a_at) / RFU CDKN2B (11736163_a_at) / Fold change /veh CDKN2B (11736163_a_at) / RFU PRF1 (11729649_at) / Fold change /veh PRF1 (11729649_at) / RFU, ZNF638 /// ZNF638-IT1 / Fold change vs veh, ZNF638 /// ZNF638-IT1 / RFU, PANK3 / Fold change vs veh, PANK3 / RFU, SH3YL1 / Fold change vs veh, SH3YL1 / RFU, ZEB2 / Fold change vs veh, ZEB2 / RFU, NRIP1 / Fold change vs veh, NRIP1 / RFU, PTTG1IP / Fold change vs veh, PTTG1IP / RFU, CAPN2 / Fold change vs veh, CAPN2 / RFU, MED14 / Fold change vs veh, MED14 / RFU, SNORA58 / Fold change vs veh, SNORA58 / RFU, C1orf63 / Fold change vs veh, C1orf63 / RFU, LRRFIP1 / Fold change vs veh, LRRFIP1 / RFU, NDUFAF7 / Fold change vs veh, NDUFAF7 / RFU, SLC12A2 / Fold change vs veh, SLC12A2 / RFU, IBTK / Fold change vs veh, IBTK / RFU, ESF1 / Fold change vs veh, ESF1 / Fold change vs veh, TMEM50B / RFU, TAOK1 / Fold change vs veh, TAOK1 / RFU, ACBD3 / Fold change vs veh, ACBD3 / RFU, TMA16 / Fold change vs veh, TMA16 / RFU, RWDD3 / Fold change vs veh, RWDD3 / RFU, BCAT1 / Fold change vs veh, BCAT1 / RFU, EDEM3 / Fold change vs veh, EDEM3 / RFU, TMEM33 / Fold change vs veh, TMEM33 / RFU, WDR75 / Fold change vs veh, WDR75 / RFU, AHCTF1 / Fold change vs veh, AHCTF1 / RFU, TFRC / Fold change vs veh, TFRC / RFU, ZDHHC17 / Fold change vs veh, ZDHHC17 / RFU, NOM1 / Fold change vs veh, NOM1 / RFU, ARL8B / Fold change vs veh, ARL8B / RFU, ZBTB11 / Fold change vs veh, ZBTB11 / RFU, TAMM41 / Fold change vs veh, TAMM41 / RFU, KIAA1704 /// LOC100996395 / Fold change vs veh, KIAA1704 /// LOC100996395 / RFU, ING1 / Fold change vs veh, ING1 / RFU, TRMT61B / Fold change vs veh, TRMT61B / RFU, FUBP3 / Fold change vs veh, FUBP3 / RFU, TP53 / Fold change vs veh, TP53 / RFU, TNKS2 / Fold change vs veh, TNKS2 / RFU, ZFP14 / Fold change vs veh, ZFP14 / RFU, ACTR2 / Fold change vs veh, ACTR2 / RFU, PPP3R1 / Fold change vs veh, PPP3R1 / RFU, PIK3R1 / Fold change vs veh, PIK3R1 / RFU, HNRNPA1 / Fold change vs veh, HNRNPA1 / RFU, RNF170 / Fold change vs veh, RNF170 / RFU, ZNF28 / Fold change vs veh, ZNF28 / RFU, RNGTT / Fold change vs veh, RNGTT / RFU, OGT / Fold change vs veh, OGT / RFU, BRD1 / Fold change vs veh, BRD1 / RFU, MARS / Fold change vs veh, MARS / RFU, ZNF655 / Fold change vs veh, ZNF655 / RFU, FAHD1 / Fold change vs veh, FAHD1 / RFU, BDP1 / Fold change vs veh, BDP1 / RFU, LRRCC1 / Fold change vs veh, LRRCC1 / RFU, ARID1A / Fold change vs veh, ARID1A / RFU, ZNF146 / Fold change vs veh, ZNF146 / RFU, ZNF330 / Fold change vs veh, ZNF330 / RFU, GPN3 / Fold change vs veh, GPN3 / RFU, C9orf123 / Fold change vs veh, C9orf123 / RFU, N4BP2L2 / Fold change vs veh, N4BP2L2 / RFU, ARFIP1 / Fold change vs veh, ARFIP1 / RFU, FAM179B / Fold change vs veh, FAM179B / RFU, BCL10 / Fold change vs veh, BCL10 / RFU, UHRF1BP1L / Fold change vs veh, UHRF1BP1L / RFU, BET1 / Fold change vs veh, BET1 / RFU, CNOT2 / Fold change vs veh, CNOT2 / RFU, ZNF268 / Fold change vs veh, ZNF268 / Fold change vs veh, ZNF507 / RFU, DGCR2 / Fold change vs veh, DGCR2 / RFU, WDSUB1 / Fold change vs veh, WDSUB1 / Fold change vs veh, HSP90B1 /// MIR3652 / RFU, ADSS / Fold change vs veh, ADSS / RFU, GK / Fold change vs veh, GK / RFU, ZNF148 / Fold change vs veh, ZNF148 / RFU, TAF9 / Fold change vs veh, TAF9 / RFU, SLC1A5 / Fold change vs veh, SLC1A5 / RFU, SLMO2 / Fold change vs veh, SLMO2 / RFU, ABCC4 / Fold change vs veh, ABCC4 / RFU, LOC101060439 /// RAP1B / Fold change vs veh, LOC101060439 /// RAP1B / RFU, RFX7 / Fold change vs veh, RFX7 / RFU, GTPBP10 / Fold change vs veh, GTPBP10 / RFU, CNEP1R1 / Fold change vs veh, CNEP1R1 / RFU, BIVM-ERCC5 /// ERCC5 / Fold change vs veh, BIVM-ERCC5 /// ERCC5 / RFU, ILF3 / Fold change vs veh, ILF3 / RFU 11762660_at / Fold change /veh 11762660_at / RFU VCAN (11757783_s_at) / Fold change /veh VCAN (11757783_s_at) / RFU DDX43 (11728927_at) / Fold change /veh DDX43 (11728927_at) / RFU KRT8 (11758188_x_at) / Fold change /veh KRT8 (11758188_x_at) / RFU NKD1 (11759106_at) / Fold change /veh NKD1 (11759106_at) / RFU SRD5A1 (11742802_a_at) / Fold change /veh SRD5A1 (11742802_a_at) / RFU TPSAB1 /// TPSB2 (11721975_s_at) / Fold change /veh TPSAB1 /// TPSB2 (11721975_s_at) / RFU GSTM3 (11746129_a_at) / Fold change /veh GSTM3 (11746129_a_at) / RFU IL23R (11737362_x_at) / Fold change /veh IL23R (11737362_x_at) / RFU TMEM51 (11727254_a_at) / Fold change /veh TMEM51 (11727254_a_at) / RFU PIWIL2 (11732686_x_at) / Fold change /veh PIWIL2 (11732686_x_at) / RFU ORM1 (11744905_x_at) / Fold change /veh ORM1 (11744905_x_at) / RFU CCDC152 (11743942_at) / Fold change /veh CCDC152 (11743942_at) / RFU ECM1 (11717891_a_at) / Fold change /veh ECM1 (11717891_a_at) / RFU IL23R (11748794_a_at) / Fold change /veh IL23R (11748794_a_at) / RFU TNFAIP8L3 (11732012_x_at) / Fold change /veh TNFAIP8L3 (11732012_x_at) / RFU MBOAT4 (11741988_at) / Fold change /veh MBOAT4 (11741988_at) / RFU 11764193_at / Fold change /veh 11764193_at / RFU TMEM53 (11763286_at) / Fold change /veh TMEM53 (11763286_at) / RFU MAGEB2 (11727129_at) / Fold change /veh MAGEB2 (11727129_at) / RFU TMEM200A (11744735_a_at) / Fold change /veh TMEM200A (11744735_a_at) / RFU CCDC152 (11751479_a_at) / Fold change /veh CCDC152 (11751479_a_at) / RFU FAM211A (11726209_a_at) / Fold change /veh FAM211A (11726209_a_at) / RFU RGS16 (11746705_a_at) / Fold change /veh RGS16 (11746705_a_at) / RFU VCAN (11755009_s_at) / Fold change /veh VCAN (11755009_s_at) / RFU RHOB (11743442_s_at) / Fold change /veh RHOB (11743442_s_at) / RFU RGS16 (11720943_a_at) / Fold change /veh RGS16 (11720943_a_at) / RFU RGS16 (11720944_at) / Fold change /veh RGS16 (11720944_at) / RFU, VPS4B / Fold change vs veh, VPS4B / RFU, CREB1 / Fold change vs veh, CREB1 / RFU, DNAJC13 / Fold change vs veh, DNAJC13 / RFU, GNAQ / Fold change vs veh, GNAQ / RFU, CDK5R1 / Fold change vs veh, CDK5R1 / RFU, ZRANB3 / Fold change vs veh, ZRANB3 / RFU, CUL4A / Fold change vs veh, CUL4A / RFU, CCNY / Fold change vs veh, CCNY / RFU, UFL1 / Fold change vs veh, UFL1 / RFU, COG3 / Fold change vs veh, COG3 / RFU, DIAPH2 / Fold change vs veh, DIAPH2 / RFU, SKA2 / Fold change vs veh, SKA2 / RFU, AFF3 / Fold change vs veh, AFF3 / RFU, LMF1 / Fold change vs veh, LMF1 / RFU, IPO11 / Fold change vs veh, IPO11 / RFU, DFFB / Fold change vs veh, DFFB / RFU, FOXP1 / Fold change vs veh, FOXP1 / RFU, CARD8 / Fold change vs veh, CARD8 / RFU, STRN3 / Fold change vs veh, STRN3 / RFU, ADK / Fold change vs veh, ADK / RFU, RASSF2 / Fold change vs veh, RASSF2 / RFU, WIPF1 / Fold change vs veh, WIPF1 / RFU, LARP1B / Fold change vs veh, LARP1B / RFU, RASA1 / Fold change vs veh, RASA1 / RFU, RB1 / Fold change vs veh, RB1 / RFU, PPFIA1 / Fold change vs veh, PPFIA1 / RFU, MAT2A / Fold change vs veh, MAT2A / RFU, CCT5 / Fold change vs veh, CCT5 / RFU, WDR92 / Fold change vs veh, WDR92 / RFU, CUX1 / Fold change vs veh, CUX1 / RFU, TTC7A / Fold change vs veh, TTC7A / RFU, TMEM135 / Fold change vs veh, TMEM135 / RFU, DEPTOR / Fold change vs veh, DEPTOR / RFU, CPM / Fold change vs veh, CPM / RFU, DNAJB6 / Fold change vs veh, DNAJB6 / RFU, CACNA2D3 / Fold change vs veh, CACNA2D3 / RFU, DTX4 / Fold change vs veh, DTX4 / RFU, TFCP2 / Fold change vs veh, TFCP2 / RFU, GMCL1 /// GMCL1P1 / Fold change vs veh, GMCL1 /// GMCL1P1 / RFU, AEBP2 / Fold change vs veh, AEBP2 / RFU, SNHG1 /// SNORD22 /// SNORD25 /// SNORD26 /// SNORD27 /// SNORD28 /// SNORD29 /// SNORD31 / Fold change vs veh, SNHG1 /// SNORD22 /// SNORD25 /// SNORD26 /// SNORD27 /// SNORD28 /// SNORD29 /// SNORD31 / Fold change (Aza/veh), C12orf56 (ProbeSet 11735607_a_at) / Fold change (ACY-1035/veh), C12orf56 (ProbeSet 11735607_a_at) / Fold change (Aza/veh), FGFR1OP (ProbeSet 11751329_s_at) / Fold change (ACY-1035/veh), FGFR1OP (ProbeSet 11751329_s_at) / Fold change (Aza/veh), VPS36 (ProbeSet 11739960_a_at) / Fold change (ACY-1035/veh), VPS36 (ProbeSet 11739960_a_at) / RFU SYPL1 (11715823_x_at) / Fold change /veh SYPL1 (11715823_x_at) / RFU IGFBP7 (11715501_s_at) / Fold change /veh IGFBP7 (11715501_s_at) / RFU REEP3 (11722064_at) / Fold change /veh REEP3 (11722064_at) / RFU IGLL1 (11728026_x_at) / Fold change /veh IGLL1 (11728026_x_at): dose or concentration left out as unconfirmed. The following applies: MV-4-11 cells, 48 hours.

Here are results for one molecule from publication PMC5218480 (PLoS ONE, 2017).

As for `Nc1ncn([C@@H]2O[C@H](CO)[C@@H](O)[C@H]2O)c(=O)n1` [azacitidine], the “Fold change /veh FAM212B (11763350_a_at)” value is 1.13.
